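Protocol summary: plate cells (96-well), add compound at 5 concentrations, incubate 48 h, interpolate endpoints linearly. Definition used: TGI = concentration required for complete inhibition of growth.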
How the values were obtained:
Assay in all cases: NCI tumour cell line growth inhibition, 48 h
786-0 renal = tested on: 786-0 renal
A498 renal = tested on: A498 renal
ACHN renal = tested on: ACHN renal
CAKI-1 renal = tested on: CAKI-1 renal
COLO 205 colon = tested on: COLO 205 colon
DLD-1 colon = tested on: DLD-1 colon
DMS 273 small cell lung = tested on: DMS 273 small cell lung
HCC-2998 colon = tested on: HCC-2998 colon
HCT-116 colon = tested on: HCT-116 colon
HL-60(TB) leukemia = tested on: HL-60(TB) leukemia
HOP-62 NSCLC = tested on: HOP-62 NSCLC
HOP-92 NSCLC = tested on: HOP-92 NSCLC
IGROV1 ovarian = tested on: IGROV1 ovarian
LOX IMVI melanoma = tested on: LOX IMVI melanoma
LXFL 529 NSCLC = tested on: LXFL 529 NSCLC
M14 melanoma = tested on: M14 melanoma
M19-MEL melanoma = tested on: M19-MEL melanoma
MALME-3M melanoma = tested on: MALME-3M melanoma
NCI-H226 lung = tested on: NCI-H226 lung
RPMI-8226 leukemia = tested on: RPMI-8226 leukemia
RXF-631 renal = tested on: RXF-631 renal
SF-268 CNS = tested on: SF-268 CNS
SF-539 CNS = tested on: SF-539 CNS
SK-MEL-2 melanoma = tested on: SK-MEL-2 melanoma
SK-MEL-28 melanoma = tested on: SK-MEL-28 melanoma
SK-OV-3 ovarian = tested on: SK-OV-3 ovarian
SN12C renal = tested on: SN12C renal
SNB-75 CNS = tested on: SNB-75 CNS
SNB-78 CNS = tested on: SNB-78 CNS
SR leukemia = tested on: SR leukemia
UACC-62 melanoma = tested on: UACC-62 melanoma
UO-31 renal = tested on: UO-31 renal
XF 498 CNS = tested on: XF 498 CNS

Structure (SMILES): C[C@@H]1CC2(N=CCS2)[C@]2(O)O[C@@H]3C[C@@]4(C)[C@H](C[C@H]3O[C@@H]2O1)C[C@H]1O[C@]12[C@@H]4[C@H](O)C(=O)[C@]1(C)C(C3=CC(=O)OC3)CC[C@]21O (stereo partly drawn)
- TGI (786-0 renal): 17.9 nM
- TGI (A498 renal): 38.6 nM
- TGI (ACHN renal): 14.9 nM
- TGI (CAKI-1 renal): 26.5 nM
- TGI (COLO 205 colon): 82.8 nM
- TGI (DLD-1 colon): 21.6 nM
- TGI (DMS 273 small cell lung): 21.4 nM
- TGI (HCC-2998 colon): 72.7 nM
- TGI (HCT-116 colon): 30.1 nM
- TGI (HL-60(TB) leukemia): 35.3 nM
- TGI (HOP-62 NSCLC): 21.1 nM
- TGI (HOP-92 NSCLC): 80 nM
- TGI (IGROV1 ovarian): 159 nM
- TGI (LOX IMVI melanoma): 23.9 nM
- TGI (LXFL 529 NSCLC): 16.6 nM
- TGI (M14 melanoma): 49.7 nM
- TGI (M19-MEL melanoma): 78.4 nM
- TGI (MALME-3M melanoma): 28.5 nM
- TGI (NCI-H226 lung): 74.6 nM
- TGI (RPMI-8226 leukemia): 57.8 nM
- TGI (RXF-631 renal): 102 nM
- TGI (SF-268 CNS): 14.6 nM
- TGI (SF-539 CNS): 12.2 nM
- TGI (SK-MEL-2 melanoma): 74.9 nM
- TGI (SK-MEL-28 melanoma): 89 nM
- TGI (SK-OV-3 ovarian): 77.8 nM
- TGI (SN12C renal): 20.2 nM
- TGI (SNB-75 CNS): 98.4 nM
- TGI (SNB-78 CNS): 49.5 nM
- TGI (SR leukemia): 15 nM
- TGI (UACC-62 melanoma): 51.1 nM
- TGI (UO-31 renal): 75.5 nM
- TGI (XF 498 CNS): 33.6 nM

Reference: PubChem BioAssay (NCI)
